Eight molecules from US20260364184A1, “COMPOUND BASED ON OXOISOINDOLINYL-SUBSTITUTED TETRAHYDROPYRIMIDINE-DIONE AND USE THEREOF” (GLUETACS THERAPEUTICS (SHANGHAI) CO., LTD., priority 2023, published 2026) can be followed below.

The target of assay [1] is T1, human Cereblon WT GST-tagged protein (CRBN) (Homo sapiens, UniProt Q96SW2).
T1 construct: purchased CISBIO 64BDCRBNPEH
Nature of the assay: CRBN binding by HTRF (Cereblon binding kit). Summed up: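 GST-tagged human Cereblon WT was incubated 3 h at room temperature with compound, thalidomide-Re tracer and Eu anti-GST antibody. Final compound concentrations were 10 to 0.00064 µM (7 points) or 2 and 0.5 µM. Inhibition rate was calculated from HTRF 665/620 nm ratios versus solvent and blank controls.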

The next assay has as its target T2, CDK6 (Homo sapiens, UniProt Q00534+Q96SW2).
T2 construct: expression of target proteins in cells; endogenous in cells
Nature of the assay: Western blot degradation of CDK6. The assay is classed as cell-based. The settings on record: MDA-MB-231 Cell; 24 hours. In a few lines:
(§1)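 Immunoblot of drug-treated versus DMSO-treated cell lysates, with densitometric quantification. Values: DC50 (50% band loss, fitted) and loading-control-normalised % remaining or degradation.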
On the technique in general: Immunoblotting shows a protein as a band on a membrane.

Assay [2] has as its system Human large cell immunoblastic lymphoma cell line SR. The experiment in a line: Inhibition of SR cell proliferation (CellTiter luminescent viability). As to conditions: Table IE1, CDK4/6 inhibitor-based, 96 hours, read-out: Inhibitory activity (IC50, nM) on tumor cell proliferation, SR. The assay is classed as cell-based. The procedure:
(§2) The tumor cells used herein were cultured in a cell culture medium listed in table 3 at 37 °C in an incubator with 5% CO2. Prior to experimentation, all cell lines used were correctly identified by STR profiling, and tested negative for mycoplasma contamination using a mycoplasma detection kit through routine screenings.
(§3) The IC50 values of the compounds of the present disclosure (including the compounds in Table 1, Table 2, and Examples 1-468) were determined using the CellTiter-Meiluncell Luminescent Cell Viability Assay Kit from Dalian Meilun Biotech Co., Ltd. The detailed procedure is as follows: Tumor cells were seeded in 96-well cell culture plates at the densities specified in Table 4. On the following day, the test compounds of the present disclosure were subjected to serial dilution. The dilution can be performed according to one of the following two methods: • (1) The first dilution method: The test compounds of the present disclosure (including the compounds in Table 1, Table 2, and Examples 1-468) were subjected to 5-fold serial dilutions starting from a highest concentration of 2000 μM, resulting in a total of 9 concentrations from high to low (2000, 400, 80, 16, 3.2, 0.64, 0.128, 0.0256, 0.00512 μM). Subsequently, 0.5 μL of the test compound dilution was transferred into the 96-well plate containing the cells, with each well containing 100 μL of cell culture medium. […] Into the 96-well plate, the diluted test compounds and corresponding detection reagents were added, resulting in final test compound concentrations of 500 nM and 10 nM, respectively. The experimental procedure is described below using the diluted 2 μM test compound as an example.
(§4) 0.5 μL of the aforementioned diluted compound of the present disclosure (including the compounds in Table 1, Table 2, and Examples 1-468) was added to the seeded cells in 100 μL of medium, yielding a final test compound concentration of 10 nM. After the cells were treated with the compounds of the present disclosure for a specified period, the cell viability assay reagent was added to the culture medium according to the kit's instructions to determine cell viability. […] All controls were treated using the same procedure as the compounds of the present disclosure. The growth inhibition curves for the compounds of the present disclosure were plotted using Prism GraphPad software, and the IC50 values were calculated therefrom.

A further assay concerns the target T3, CDK4 (Homo sapiens, UniProt P11802+Q96SW2).
T3 construct: expression of target proteins in cells; endogenous in cells
Nature of the assay: Western blot degradation of CDK4. The assay is classed as cell-based. The settings on record: MDA-MB-231 Cell; 24 hours. In a few lines: as §1

Assay [3] relates to Human myeloid monocytic leukemia cell line (MV-4-11). Nature of the assay: Inhibition of MV-4-11 cell proliferation (CellTiter luminescent viability). The settings on record: Table IE1, CDK4/6 inhibitor-based; MV-4-11, 96 hours; read-out: Inhibitory activity (IC50, nM) on tumor cell proliferation, MV-4-11. The assay is classed as cell-based. Summed up: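 IC50 is fitted from luminescent viability (CellTiter-Meiluncell) curves. Nine-point, 5-fold dilution series (top stock 2000 μM) are added at 0.5 μL per 100 μL medium to cells plated the day before, with growth at 37 °C and 5% CO2.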

For assay [4], the system named is Human acute lymphocytic leukemia T lymphocytes cell line (CCRF-CEM). The experiment in a line: Inhibition of CCRF-CEM cell proliferation (CellTiter luminescent viability). As to conditions: Table IE1, CDK4/6 inhibitor-based, 96 hours, read-out: Inhibitory activity (IC50, nM) on tumor cell proliferation, CCRF-CEM. The assay is classed as cell-based.
Assay [5] concerns Human Acute T Lymphoblastic Leukemia Cells (Molt-4). Nature of the assay: Inhibition of Molt-4 cell proliferation (CellTiter luminescent viability). The assay is classed as cell-based. As to conditions: Table IE1, CDK4/6 inhibitor-based; Molt-4, 96 hours; read-out: Inhibitory activity (IC50, nM) on tumor cell proliferation, Molt-4.
The subject of assay [6] is Human neuroblastoma cell line (SK-N-AS). The experiment in a line: Inhibition of SK-N-AS cell proliferation (CellTiter luminescent viability). As to conditions: Table II2, EZH2 inhibitor-based, 96 hours; for inhibition at 0.01 µM: 10 nM, read-out: Inhibition Rate at 10 nM (%); for inhibition at 0.5 µM: 500 nM, read-out: Inhibition Rate at 500 nM (%). The assay is classed as cell-based. The procedure:
as §2, §3, §4

T3 sequence (P11802 whole entry): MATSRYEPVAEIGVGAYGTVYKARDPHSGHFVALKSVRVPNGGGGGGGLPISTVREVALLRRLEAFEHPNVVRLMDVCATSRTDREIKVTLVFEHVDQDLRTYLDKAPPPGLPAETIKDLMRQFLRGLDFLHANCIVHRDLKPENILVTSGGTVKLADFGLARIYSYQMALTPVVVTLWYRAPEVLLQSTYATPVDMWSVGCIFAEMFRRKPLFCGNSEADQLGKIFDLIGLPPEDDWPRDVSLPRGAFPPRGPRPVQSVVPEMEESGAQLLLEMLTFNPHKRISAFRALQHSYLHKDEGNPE
T3 sequence (Q96SW2 whole entry): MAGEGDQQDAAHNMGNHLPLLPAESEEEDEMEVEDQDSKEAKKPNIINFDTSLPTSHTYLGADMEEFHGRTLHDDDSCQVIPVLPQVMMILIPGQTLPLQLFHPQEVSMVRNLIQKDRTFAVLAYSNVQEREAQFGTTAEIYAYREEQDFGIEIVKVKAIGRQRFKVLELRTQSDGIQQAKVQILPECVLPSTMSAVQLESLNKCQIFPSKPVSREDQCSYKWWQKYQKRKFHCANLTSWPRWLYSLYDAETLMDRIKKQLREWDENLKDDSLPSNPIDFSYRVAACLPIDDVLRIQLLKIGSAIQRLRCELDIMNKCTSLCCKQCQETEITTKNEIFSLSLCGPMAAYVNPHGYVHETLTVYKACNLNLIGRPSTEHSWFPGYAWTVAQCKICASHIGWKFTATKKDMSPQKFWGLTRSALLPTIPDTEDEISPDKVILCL
T3 sequence (Q16531 whole entry partner): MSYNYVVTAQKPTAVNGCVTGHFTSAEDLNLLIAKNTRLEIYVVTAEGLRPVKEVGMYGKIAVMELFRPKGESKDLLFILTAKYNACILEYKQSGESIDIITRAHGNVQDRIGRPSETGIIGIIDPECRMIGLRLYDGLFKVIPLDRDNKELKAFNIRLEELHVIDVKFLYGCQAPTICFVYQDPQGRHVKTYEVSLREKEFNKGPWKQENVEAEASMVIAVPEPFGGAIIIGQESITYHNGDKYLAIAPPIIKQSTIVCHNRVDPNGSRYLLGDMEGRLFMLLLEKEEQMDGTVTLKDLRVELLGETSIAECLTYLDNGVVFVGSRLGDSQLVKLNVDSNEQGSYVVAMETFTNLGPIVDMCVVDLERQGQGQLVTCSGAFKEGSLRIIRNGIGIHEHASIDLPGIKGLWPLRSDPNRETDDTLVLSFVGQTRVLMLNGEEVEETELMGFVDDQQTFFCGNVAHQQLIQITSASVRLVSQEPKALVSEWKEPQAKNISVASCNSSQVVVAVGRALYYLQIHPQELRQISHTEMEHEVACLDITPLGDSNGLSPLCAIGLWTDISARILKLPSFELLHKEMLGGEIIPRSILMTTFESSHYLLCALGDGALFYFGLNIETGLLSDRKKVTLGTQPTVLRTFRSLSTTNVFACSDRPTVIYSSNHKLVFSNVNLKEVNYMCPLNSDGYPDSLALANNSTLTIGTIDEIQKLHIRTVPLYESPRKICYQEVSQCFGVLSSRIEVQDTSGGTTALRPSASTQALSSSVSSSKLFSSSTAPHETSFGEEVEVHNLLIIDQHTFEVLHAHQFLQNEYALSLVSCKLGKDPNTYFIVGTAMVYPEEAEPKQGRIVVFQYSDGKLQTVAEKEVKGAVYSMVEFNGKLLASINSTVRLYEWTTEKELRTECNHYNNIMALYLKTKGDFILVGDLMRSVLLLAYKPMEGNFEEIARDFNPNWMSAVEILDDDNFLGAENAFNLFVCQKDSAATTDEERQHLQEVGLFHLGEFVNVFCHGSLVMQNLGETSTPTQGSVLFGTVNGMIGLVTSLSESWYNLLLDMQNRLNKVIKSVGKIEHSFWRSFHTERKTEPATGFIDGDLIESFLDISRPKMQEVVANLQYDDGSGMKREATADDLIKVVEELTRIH
T2 sequence (Q00534 whole entry): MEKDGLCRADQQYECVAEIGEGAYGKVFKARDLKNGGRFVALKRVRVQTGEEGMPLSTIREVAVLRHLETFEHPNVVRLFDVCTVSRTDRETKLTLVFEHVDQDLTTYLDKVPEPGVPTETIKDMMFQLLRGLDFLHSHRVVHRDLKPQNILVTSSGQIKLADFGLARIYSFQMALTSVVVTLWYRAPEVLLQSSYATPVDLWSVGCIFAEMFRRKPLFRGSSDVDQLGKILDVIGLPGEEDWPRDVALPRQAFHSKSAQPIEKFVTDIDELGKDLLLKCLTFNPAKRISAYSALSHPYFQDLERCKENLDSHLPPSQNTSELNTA
T2 sequence (Q96SW2 whole entry): as the sequence (Q96SW2 whole entry) above
T2 sequence (Q16531 whole entry partner): as the sequence (Q16531 whole entry partner) above
T1 sequence (Q96SW2 whole entry): as the sequence (Q96SW2 whole entry) above

On to `Cc1nc2c(F)cc(-c3nc(Nc4ccc(CN5CCN(CC6CCN(c7cccc8c7C(=O)N(N7CCC(=O)NC7=O)C8=O)CC6)CC5)cn4)ncc3F)cc2n1C(C)C` [GT-06663, 2-(2,4-dioxotetrahydropyrimidin-1(2H)-yl)-4-(4-((4-((6-((5-fluoro-4-(4-fluoro-1-isopropyl-2-methyl-1H-benzo[d]imidazol-6-yl)pyrimidin-2-yl)amino)pyridin-3-yl)methyl)piperazin-1-yl)methyl)piperidin-1-yl)isoindoline-1,3-dione], for which the “Inhibition Rate at 0.5 μM (%)” value in assay [1] (0.5 μM) is on record as “a2 (20% < a2 ≤ 30%)”. Further, in assay [1] (2 μM), the “Inhibition Rate at 2 μM (%)” value is “a5 (53% < a5 ≤ 60%)”. Moreover, on CDK6, the “Degradation of substrate protein CDK6 (substrate protein remaining %)” value is recorded as “A (0%≤substrate protein remaining %≤80%)”. The IC50 in assay [2] is 400 to 800 nM; in assay [3], 10 to 50 nM. The “Degradation of substrate protein CDK4 (substrate protein remaining %)” value at CDK4 is given as “B (80%<substrate protein remaining %≤100%)”.

For the molecule `Cc1nc2c(F)cc(-c3nc(Nc4ccc(N5CCC(N(C)CC6CCN(c7ccc8c(c7)C(=O)N(N7CCC(=O)NC7=O)C8=O)CC6)CC5)cn4)ncc3F)cc2n1C(C)C` [GT-06733, 2-(2,4-dioxotetrahydropyrimidin-1(2H)-yl)-5-(4-(((1-(6-((5-fluoro-4-(4-fluoro-1-isopropyl-2-methyl-1H-benzo[d]imidazol-6-yl)pyrimidin-2-yl)amino)pyridin-3-yl)piperidin-4-yl)(methyl)amino)methyl)piperidin-1-yl)isoindoline-1,3-dione], the IC50 in assay [4] was in the range of 100 to 300 nM; in assay [2], 100 to 300 nM; in assay [5] it was 100 to 300 nM; in assay [3] it was 10 to 50 nM. Also, the “Degradation of substrate protein CDK6 (substrate protein remaining %)” value on CDK6 is “A (0%≤substrate protein remaining %≤80%)”. In addition, the “Degradation of substrate protein CDK4 (substrate protein remaining %)” value on CDK4 is on record as “A (0%≤substrate protein remaining %≤80%)”.

Turning to `Cc1nc2c(F)cc(-c3nc(Nc4ccc(N5CCC(N(C)CC6CCN(c7cccc8c7C(=O)N(N7CCC(=O)NC7=O)C8=O)CC6)CC5)cn4)ncc3F)cc2n1C(C)C` [GT-06734, 2-(2,4-dioxotetrahydropyrimidin-1(2H)-yl)-4-(4-(((1-(6-((5-fluoro-4-(4-fluoro-1-isopropyl-2-methyl-1H-benzo[d]imidazol-6-yl)pyrimidin-2-yl)amino)pyridin-3-yl)piperidin-4-yl)(methyl)amino)methyl)piperidin-1-yl)isoindoline-1,3-dione], the IC50 lay in the range of 400 to 800 nM in assay [4], 100 to 300 nM in assay [2], 400 to 800 nM in assay [5] and 50 to 100 nM in assay [3]. Also, at CDK6, the “Degradation of substrate protein CDK6 (substrate protein remaining %)” value is on record as “A (0%≤substrate protein remaining %≤80%)”. The “Degradation of substrate protein CDK4 (substrate protein remaining %)” value on CDK4 is “A (0%≤substrate protein remaining %≤80%)”.

On to `Cc1nc2c(F)cc(-c3nc(Nc4ccc(N5CCC(N6CCN(Cc7ccc8c(c7)C(=O)N(N7CCC(=O)NC7=O)C8=O)CC6)CC5)cn4)ncc3F)cc2n1C(C)C` [GT-06737, 2-(2,4-dioxotetrahydropyrimidin-1(2H)-yl)-5-((4-(1-(6-((5-fluoro-4-(4-fluoro-1-isopropyl-2-methyl-1H-benzo[d]imidazol-6-yl)pyrimidin-2-yl)amino)pyridin-3-yl)piperidin-4-yl)piperazin-1-yl)methyl)isoindoline-1,3-dione], for which, on CDK6, the “Degradation of substrate protein CDK6 (substrate protein remaining %)” value is “A (0%≤substrate protein remaining %≤80%)”. Besides, the IC50 was 100 to 300 nM in assay [2] and 300 to 400 nM in assay [3]. The “Degradation of substrate protein CDK4 (substrate protein remaining %)” value at CDK4 is “B (80%<substrate protein remaining %≤100%)”.

On to `CCN(c1cc(-c2ccc(N3CCC(N(C)Cc4ccc5c(c4)CN(N4CCC(=O)NC4=O)C5=O)CC3)cc2)cc(C(=O)NCc2c(C)cc(C)[nH]c2=O)c1C)C1CCOCC1` [GT-08512, N-((4,6-dimethyl-2-oxo-1,2-dihydropyridin-3-yl)methyl)-4′-(4-(((2-(2,4-dioxotetrahydropyrimidin-1(2H)-yl)-1-oxoisoindolin-5-yl)methyl)(methyl)amino)piperidin-1-yl)-5-(ethyl(tetrahydro-2H-pyran-4-yl)amino)-4-methyl-[1,1′-biphenyl]-3-carboxamide], for which, in assay [6], the inhibition at 0.01 µM is 10 to 15% and the inhibition at 0.5 µM lay within 20 to 30%.

With `CCN(c1cc(-c2ccc(CN3CCN(CC4CCN(c5cccc6c5C(=O)N(N5CCC(=O)NC5=O)C6=O)CC4)CC3)cc2)cc(C(=O)NCc2c(C)cc(C)[nH]c2=O)c1C)C1CCOCC1` [GT-08519, N-((4,6-dimethyl-2-oxo-1,2-dihydropyridin-3-yl)methyl)-4′-((4-((1-(2-(2,4-dioxotetrahydropyrimidin-1(2H)-yl)-1,3-dioxoisoindolin-4-yl)piperidin-4-yl)methyl)piperazin-1-yl)methyl)-5-(ethyl(tetrahydro-2H-pyran-4-yl)amino)-4-methyl-[1,1′-biphenyl]-3-carboxamide], in assay [6], the inhibition at 0.01 µM is 10 to 15% and the inhibition at 0.5 µM lay in the range of 20 to 30%.

With `CCN(c1cc(-c2ccc(N3CCN(CC4CCN(c5cccc6c5C(=O)N(N5CCC(=O)NC5=O)C6=O)CC4)CC3)cc2)cc(C(=O)NCc2c(C)cc(C)[nH]c2=O)c1C)C1CCOCC1` [GT-08521, N-((4,6-dimethyl-2-oxo-1,2-dihydropyridin-3-yl)methyl)-4′-(4-((1-(2-(2,4-dioxotetrahydropyrimidin-1(2H)-yl)-1,3-dioxoisoindolin-4-yl)piperidin-4-yl)methyl)piperazin-1-yl)-5-(ethyl(tetrahydro-2H-pyran-4-yl)amino)-4-methyl-[1,1′-biphenyl]-3-carboxamide], in assay [6], the inhibition at 0.01 µM lay within 20 to 30% and the inhibition at 0.5 µM lay in the range of 30 to 40%.

In the case of `CCCc1cc(C)[nH]c(=O)c1CNC(=O)c1cc(-c2ccc(N3CCN(C(C)C)CC3)nc2)cc2c1cnn2C(C)C` [UNC1999, reference compound], in assay [6], the inhibition at 0.01 µM was 0 to 5% and the inhibition at 0.5 µM was 0 to 5%.

What is called inhibition is the drop in the measured response relative to a control, in per cent.
